Test results from ChEMBL document CHEMBL5335830, “Unusual Sesquiterpenes from Streptomyces olindensis DAUFPE 5622” (J Nat Prod, 2024).
The source made the active and inactive calls.

Assays:
Candida albicans = assay: Antifungal activity against Candida albicans; type: functional, organism-based
Bacillus subtilis = assay: Antimicrobial activity against Bacillus subtilis; type: functional, organism-based
[1] = system: Colon adenocarcinoma cell line; assay: Cytotoxicity against human Colon adenocarcinoma cells; type: functional, cell-based
Escherichia coli = assay: Antimicrobial activity against Escherichia coli; type: functional, organism-based

Measured: Activity

CC1=CC(=O)C[C@H]2[C@@H](C)[C@@](C)(CO)CC[C@]12C
inactive: Candida albicans | Bacillus subtilis | [1] | Escherichia coli
